Measured values reported in US5830672A, “Elisa kit for the rapid determination of N-acetyltransferase (NAT2) phenotypes” (priority 1996, dated 1998).

Columns and labels:
[1] = test system: AAMU-Ab; assay: Competitive antigen ELISA, cross-reactivity of AAMU-Ab; format: binding, rabbit; conditions: for % Cross-Reaction AAMU-Ab: 0 = absence of inhibition or inhibition no higher than 40% at highest concentration tested (5 × 10^-3 M)
Protocol: (§1) Four mature females New Zealand white rabbits (Charles River Canada, St-Constant, Que., Canada) were used for antibody production. The protocol employed in this study was approved by the McGill University Animal Care Committee in accordance with the guidelines from the Canadian Council on Animal Care. An isotonic saline solution (0.6 mL) containing […] of BSA conjugated antigen was emulsified with 0.6 mL of a complete Freund's adjuvant. 0.5 mL of the emulsion (100 mg of antigen) was injected per rabbit intramuscularly or subcutaneously. Rabbits were subsequently boosted at intervals of three weeks with 50 mg of antigen emulsified in incomplete Freund's adjuvant. Blood was collected by venipuncture of the ear 10-14 days after boosting. Antisera were stores at 4° C. in the presence of 0.01% sodium azide. Buffers and water without additives were filtered through millipore filters and kept for 1 week. BSA, antibodies, Tween™ 20 and horse radish peroxidase conjugates were added to these buffers and water just prior to use. Urine samples were usually collected 4 hours after drinking a cup of coffee (instant or brewed with approximately 100 mg of caffeine per cup) and stored at -80° C. They were diluted 10 times with sodium phosphate buffer (620 mosm, pH 7.50) and were subsequently diluted with water to give concentrations of AAMU and 1X no higher than 3×10^-6 M in the ELISA. All the pipettings were done with an eight-channel pipette, except those of the antibody and sample solutions. Starting with the last well, 100 μL of a carbonate buffer (100 mM, pH 9.6) containing 2.5 μg mL^-1 antibodies was pipetted. […] After the initial wash, unoccupied sites were blocked by incubation for 90 min. at room temperature with 100 μL TPB containing 3% BSA. The wells were washed four times with 100 μL TPB. […] AAMU or 1X, 2×10^-4 to 2×10^-8 M) or sample in duplicate. The microplate was gently shaken with an orbital shaker at room temperature for 3-4 hours. […] To the washed plate was added 150 μL of a substrate buffer composed of citric acid (25 mM) and sodium phosphate dibasic buffer (50 mM, pH 5.0) containing 0.06% hydrogen peroxide and 0.04% o-phenylenediamine hydrochloride. […] Buffers and water without additives were filtered through millipore filters and kept for 1 week. BSA, antibodies, Tween™ 20 and horse radish peroxidase conjugates were added to these buffers and water just prior to use. Urine samples were usually collected 4 hours after drinking a cup of coffee (instant or brewed with approximately 100 mg of caffeine per cup) and stored at -80° C. They were diluted 10 times with sodium phosphate buffer (620 mosm, pH 7.50) and were subsequently diluted with water to give concentrations of AAMU and 1X no higher than 3×10^-6 M in the ELISA. All the pipettings were done with an eight-channel pipette, except those of the antibody and sample solutions. Starting with the last well, 100 μL of a carbonate buffer (100 mM, pH 9.6) containing 2.5 μg mL^-1 antibodies was pipetted. […] After the initial wash, unoccupied sites were blocked by incubation for 90 min. at room temperature with 100 μL TPB containing 3% BSA. The wells were washed four times with 100 μL TPB. […] AAMU or 1X, 2×10^-4 to 2×10^-8 M) or sample in duplicate. The microplate was gently shaken with an orbital shaker at room temperature for 3-4 hours. […] To the washed plate was added 150 μL of a substrate buffer composed of citric acid (25 mM) and sodium phosphate dibasic buffer (50 mM, pH 5.0) containing 0.06% hydrogen peroxide and 0.04% o-phenylenediamine hydrochloride. […] Each curve represents triplicate determinations in a single run. The error bars represent standard deviations. For data point with no error bars, the error bars are less the size of the symbol. […] The cross reactivities of AAMU-Ab and 1X-Ab were tested using a wide variety of caffeine metabolites and structural analogs (Table 1 below).

[2] = test system: 1X-Ab; assay: Competitive antigen ELISA, cross-reactivity of 1X-Ab; format: binding, rabbit; conditions: for % Cross-Reaction 1X-Ab: 0 = absence of inhibition or inhibition no higher than 40% at highest concentration tested (5 × 10^-3 M)
Protocol: as §1

[3] = test system: N-acetyltransferase (NAT2); conditions: rapid acetylators at greater risk of severe toxicity; cited from earlier work

Row | Structure (SMILES) | % Cross-Reaction AAMU-Ab [1] [%] | % Cross-Reaction 1X-Ab [2] [%] | IC50 ([2]; 1X-Ab, read-out: concentration required for 50% inhibition in the competitive antigen ELISA) [µM] | correlation between toxicity and acetylator phenotype [3] | IC50 ([1]; AAMU-Ab, read-out: concentration required for 50% inhibition in the competitive antigen ELISA) [µM]
1 | O=c1cc[nH]c(=O)[nH]1 [Uracil] | 0 | 0 |  |  | 
2 | Cn1c(=O)[nH]c2ncn(C)c2c1=O [1,7-Dimethyl Xanthine (Paraxanthine), 1,7-Dimethyl Xanthine] | 0 | 0.5 |  |  | 
3 | Cc1nc2[nH]c(=O)[nH]c(=O)c2[nH]1 [8-Methyl Xanthine] | 0 | 0 |  |  | 
4 | Cn1c(=O)[nH]c2[nH]c(=O)n(C)c2c1=O [1,7-Dimethyluric acid] | 0 | 0 |  |  | 
5 | Cn1c(=O)c2c(ncn2C)n(C)c1=O [1,3,7-Trimethyl Xanthine (Caffeine), 1,3,7-Trimethyl Xanthine] | 0 | 0 |  |  | 
6 | O=c1[nH]c(=O)c2[nH]cnc2[nH]1 [Xanthine] | 0 | 0 |  |  | 
7 | Cn1c(=O)[nH]c2nc[nH]c2c1=O [1-Methyl Xanthine (1X), 1-Methyl Xanthine] | 0 | 100 | 10 |  | 
8 | Cn1c(=O)[nH]c2[nH]c(=O)[nH]c2c1=O [1-Methyluric acid] | 0 | 11 |  |  | 
9 | Cn1c(=O)[nH]c(=O)c2[nH]cnc21 [3-Methyl Xanthine] | 0 | 0 |  |  | 
10 | O=c1[nH]c(=O)c2[nH]c(=O)[nH]c2[nH]1 [Uric acid] | 0 | 0 |  |  | 
11 | Cn1c(=O)c2[nH]cnc2n(C)c1=O [1,3-Dimethyl Xanthine (Theophylline), 1,3-Dimethyl Xanthine] | 0 | 0.2 |  |  | 
12 | Cn1cnc2c1c(=O)[nH]c(=O)n2C [3,7-Dimethyl Xanthine (Theobromine), 3,7-Dimethyl Xanthine] | 0 | 0 |  |  | 
13 | CC(=O)Nc1c(N)[nH]c(=O)[nH]c1=O [5-Acetamino-6-amino-uracil] | 0.6 | 0 |  |  | 
14 | CN(C)CCN1C(=O)c2cccc3cc(N)cc(c23)C1=O [amonafide] |  |  |  | direct correlation between toxicity and the acetylator phenotype | 
15 | O=c1[nH]cnc2nc[nH]c12 [Hypoxanthine] | 0 | 0 |  |  | 
16 | Nc1nc2nc[nH]c2c(=O)[nH]1 [Guanine] | 0 | 0 |  |  | 
17 | CC(=O)Nc1c(N)[nH]c(=O)n(C)c1=O | 100 | 0 |  |  | 1.5
18 | Cn1cnc2[nH]c(=O)[nH]c(=O)c21 [7-Methyl Xanthine] | 0 | 0 |  |  | 
19 | CC(=O)Nc1c(N)n(C)c(=O)n(C)c1=O [5-Acetamino-6-amino-1,3-dimethyluracil] | 0 | 0 |  |  | 
